# Assay results as given in patent publication US10806726B2, “Methods of using indazole-3-carb oxamides and their use as Wnt/B-catenin signaling pathway inhibitors” (Samumed, LLC, priority 2016, dated 2020).
# pEC50: −log10 of the molar value.
# Experiments:
# [1] = test system: Wnt-responsive promoter driving firefly luciferase in SW480 cells; assay: Wnt reporter (SP5 promoter-luciferase) screening assay in SW480 cells; type: cell-based; details: Homo sapiens, 24-40 h, top concentration ten micromolar
# Description: Another screening assay for Wnt activity is described as follows. Reporter cell lines can be generated by stably transducing cells of cancer cell lines (e.g., colon cancer) with a lentiviral construct that include a Wnt-responsive promoter driving expression of the firefly luciferase gene.
# Lentiviral constructs can be made in which the SP5 promoter, a promoter having eight TCF/LEF binding sites derived from the SP5 promoter, is linked upstream of the firefly luciferase gene. The lentiviral constructs can also include a hygromycin resistance gene as a selectable marker. The SP5 promoter construct can be used to transduce SW480 cells, a colon cancer cell line having a mutated APC gene that generates a truncated APC protein, leading to de-regulated accumulation of β-catenin.
# Cultured SW480 cells bearing a reporter construct can be distributed at approximately 10,000 cells per well into 96 well or 384 well plates. Compounds from a small molecule compound library can then be added to the wells in half-log dilutions using a ten micromolar top concentration. A series of control wells for each cell type receive only buffer and compound solvent. Twenty-four to forty hours after the addition of compound, reporter activity for luciferase can be assayed, for example, by addition of the BrightGlo luminescence reagent (Promega) and the Victor3 plate reader (Perkin Elmer). Readings can be normalized to DMSO only treated cells, and normalized activities can then be used in the EC50 calculations.
# [2] = test system: primary human mesenchymal stem cells (hMSCs); assay: Tenocyte differentiation screening in hMSCs (SCXA-positive cells, 4 days); type: cell-based; details: 96 h, fold change over DMSO
# Description: Representative compounds were screened using primary human mesenchymal stem cells (hMSCs) to determine their ability to induce tenocyte differentiation (process by which tendon is developed).
# Primary human mesenchymal stem cells (hMSCs) were purchased from Lonza (Walkersville, Md.) and expanded in Mesenchymal Stem Cell Growth Media (Lonza). Cells between passage 3 and 6 were used for the experiments.
# Cells were fixed using 4% formaldehyde (Electron Microscopy Sciences), and stained with anti-Sclerasis (anti-SCXA) antibodies (Abgent, San Diego, Calif.) [Webb S., et. al., Retinoic acid receptor signaling preserves tendon stem cell characteristics and prevents spontaneous differentiation in vitro, Stem Cell Research & Therapy 2016, 7:45] overnight at 4° C. […] Number of cells positive for SCXA in each well was quantified using the Celllnsight CX5. Data was normalized to the average of 12 DMSO treated wells on the same plate using Dotmatics Studies module. The normalized averages (fold change over DMSO) of 3 replicate wells for each compound concentration were calculated. Due to solubility limitations of some of the compounds, values for higher doses were manually corrected and curve fitting and EC50 determinations were performed using Dotmatics Studies.
# EC50 for each compound is reported.
Structure (SMILES),pEC50 [1],pEC50 [2]
"O=C(Nc1cnccn1)c1n[nH]c2ccc(-c3cncc(CN4CCCCC4)c3)cc12 [compound 81, 5-(5-(Piperidin-1-ylmethyl)pyridin-3-yl)-N-(pyrazin-2-yl)-1H-indazole-3-carboxamide]",6.85 to 7.11,< 4.00
"O=C(Nc1ccc(-c2ccc(F)cc2)nc1)c1n[nH]c2ccc(-c3cncc(CN4CCCCC4)c3)cc12 [compound 73, N-(6-(4-Fluorophenyl)pyridin-3-yl)-5-(5-(piperidin-1-ylmethyl)pyridin-3-yl)-1H-indazole-3-carboxamide]",6.49,< 4.00
"CN(C)Cc1cncc(-c2ccc3[nH]nc(C(=O)Nc4ccc(C(F)(F)F)nc4)c3c2)c1 [compound 26, 5-(5-((Dimethylamino)methyl)pyridin-3-yl)-N-(6-(trifluoromethyl)pyridin-3-yl)-1H-indazole-3-carboxamide]",6.68,< 4.00
"O=C(Nc1cncc(F)c1)c1n[nH]c2ccc(-c3cccnc3)cc12 [compound 23, N-(5-Fluoropyridin-3-yl)-5-(pyridin-3-yl)-1H-indazole-3-carboxamide]",6.92,< 4.00
"O=C(Nc1ccc(-c2ccccc2)nc1)c1n[nH]c2ccc(-c3cncc(CN4CCCCC4)c3)cc12 [compound 65, N-(6-Phenylpyridin-3-yl)-5-(5-(piperidin-1-ylmethyl)pyridin-3-yl)-1H-indazole-3-carboxamide]",7.00,< 4.00
"O=C(Nc1cccc(F)c1)c1n[nH]c2ccc(-c3cncc(CN4CCCCC4)c3)cc12 [compound 162, N-(3-Fluorophenyl)-5-(5-(piperidin-1-ylmethyl)pyridin-3-yl)-1H-indazole-3-carboxamide]",6.37,< 4.00
"O=C(Nc1ccc(Oc2ccc(F)cc2)nc1)c1n[nH]c2ccc(-c3cccnc3)cc12 [compound 20, N-(6-(4-Fluorophenoxy)pyridin-3-yl)-5-(pyridin-3-yl)-1H-indazole-3-carboxamide]",6.93,4.92
"O=C(Nc1ccc(C(F)(F)F)nc1)c1n[nH]c2ccc(-c3cncc(CN4CCCCC4)c3)cc12 [compound 63, 5-(5-(Piperidin-1-ylmethyl)pyridin-3-yl)-N-(6-(trifluoromethyl)pyridin-3-yl)-1H-indazole-3-carboxamide]",7.00,4.99
"O=C(Nc1ccc(-c2cccc(F)c2)nc1)c1n[nH]c2ccc(-c3cncc(CN4CCCCC4)c3)cc12 [compound 72, N-(6-(3-Fluorophenyl)pyridin-3-yl)-5-(5-(piperidin-1-ylmethyl)pyridin-3-yl)-1H-indazole-3-carboxamide]",6.67,< 4.00
"O=C(Nc1ccc(N2CCCC2)nc1)c1n[nH]c2ccc(-c3cncc(N4CCOCC4)c3)cc12 [compound 187, 5-(5-Morpholinopyridin-3-yl)-N-(6-(pyrrolidin-1-yl)pyridin-3-yl)-1H-indazole-3-carboxamide]",6.67,< 4.00
"CN1CCN(C(=O)c2n[nH]c3ccc(-c4cncc(CN5CCCCC5)c4)cc23)CC1 [compound 83, (4-Methylpiperazin-1-yl)(5-(5-(piperidin-1-ylmethyl)pyridin-3-yl)-1H-indazol-3-yl)methanone]",5.47 to 5.60,< 4.00

# These reach a higher pEC50 [1]. Values come first.
pEC50 [1],pEC50 [2],Structure (SMILES)
7.18,< 4.00,"O=C(Nc1cncc(F)c1)c1n[nH]c2ccc(-c3cncc(CN4CCCCC4)c3)cc12 [compound 168, N-(5-Fluoropyridin-3-yl)-5-(5-(piperidin-1-ylmethyl)pyridin-3-yl)-1H-indazole-3-carboxamide]"
7.19,5.29,"CN(C)Cc1cncc(-c2ccc3[nH]nc(C(=O)Nc4cccnc4)c3c2)c1 [compound 40, 5-(5-((Dimethylamino)methyl)pyridin-3-yl)-N-(pyridin-3-yl)-1H-indazole-3-carboxamide]"
7.20,5.30,"CN1CCN(c2ccc(NC(=O)c3n[nH]c4ccc(-c5cccnc5)cc34)cn2)CC1 [compound 12, N-(6-(4-Methylpiperazin-1-yl)pyridin-3-yl)-5-(pyridin-3-yl)-1H-indazole-3-carboxamide]"
7.30,4.90,"O=C(Nc1ccc(N2CCOCC2)nc1)c1n[nH]c2ccc(-c3cncc(CN4CCCCC4)c3)cc12 [compound 69, N-(6-Morpholinopyridin-3-yl)-5-(5-(piperidin-1-ylmethyl)pyridin-3-yl)-1H-indazole-3-carboxamide]"
7.31,< 4.00,"O=C(Nc1ccc(N2CCCC2)nc1)c1n[nH]c2ccc(-c3cncc(CN4CCC(F)(F)C4)c3)cc12 [compound 183, 5-(5-((3,3-Difluoropyrrolidin-1-yl)methyl)pyridin-3-yl)-N-(6-(pyrrolidin-1-yl)pyridin-3-yl)-1H-indazole-3-carboxamide]"
7.37,< 4.00,"O=C(Nc1ccc(N2CCCC2)nc1)c1n[nH]c2ccc(-c3cncc(CN4CCC(O)CC4)c3)cc12 [compound 170, 5-(5-((4-Hydroxypiperidin-1-yl)methyl)pyridin-3-yl)-N-(6-(pyrrolidin-1-yl)pyridin-3-yl)-1H-indazole-3-carboxamide]"
7.42,< 4.00,"O=C(NC1CCCC1)c1ccc(NC(=O)c2n[nH]c3ccc(-c4cccnc4)cc23)cn1 [compound 181, N-(6-(Cyclopentylcarbamoyl)pyridin-3-yl)-5-(pyridin-3-yl)-1H-indazole-3-carboxamide]"
7.44,< 4.00,"Cc1cc(NC(=O)c2n[nH]c3ccc(-c4cncc(CN5CCCCC5)c4)cc23)cnc1N1CCC1 [compound 173, N-(6-(Azetidin-1-yl)-5-methylpyridin-3-yl)-5-(5-(piperidin-1-ylmethyl)pyridin-3-yl)-1H-indazole-3-carboxamide]"
7.46,5.09,"Nc1cncc(-c2ccc3[nH]nc(C(=O)Nc4ccc(N5CCCCC5)nc4)c3c2)c1 [compound 182, 5-(5-Aminopyridin-3-yl)-N-(6-(piperidin-1-yl)pyridin-3-yl)-1H-indazole-3-carboxamide]"
7.52,5.95,"O=C(Nc1ccc(C(=O)N2CCCC2)nc1)c1n[nH]c2ccc(-c3cncc(CN4CCCCC4)c3)cc12 [compound 179, 5-(5-(Piperidin-1-ylmethyl)pyridin-3-yl)-N-(6-(pyrrolidine-1-carbonyl)pyridin-3-yl)-1H-indazole-3-carboxamide]"
7.57,5.19,"CS(=O)(=O)c1ccc(NC(=O)c2n[nH]c3ccc(-c4cncc(CN5CCCCC5)c4)cc23)cn1 [compound 185, N-(6-(Methylsulfonyl)pyridin-3-yl)-5-(5-(piperidin-1-ylmethyl)pyridin-3-yl)-1H-indazole-3-carboxamide]"
7.80,< 4.00,"N#Cc1ccc(NC(=O)c2n[nH]c3ccc(-c4cncc(CN5CCCCC5)c4)cc23)cn1 [compound 62, N-(6-Cyanopyridin-3-yl)-5-(5-(piperidin-1-ylmethyl)pyridin-3-yl)-1H-indazole-3-carboxamide]"
7.89,< 4.00,"NC(=O)c1ccc(NC(=O)c2n[nH]c3ccc(-c4cncc(CN5CCCCC5)c4)cc23)cn1 [compound 180, N-(6-carbamoylpyridin-3-yl)-5-(5-(piperidin-1-ylmethyl)pyridin-3-yl)-1H-indazole-3-carboxamide]"
